Results on 20 compounds are retold here after US20210269451A1, “PYRIDINYL HETEROCYCLYL COMPOUNDS FOR THE TREATMENT OF AUTOIMMUNE DISEASE” (Hoffmann-La Roche Inc., priority 2018, published 2021).

Some results are limits rather than exact numbers.

One data set has as its target T1, hTLR9 (Homo sapiens, UniProt Q9NR96).
T1 sequence (Q9NR96 26-1032): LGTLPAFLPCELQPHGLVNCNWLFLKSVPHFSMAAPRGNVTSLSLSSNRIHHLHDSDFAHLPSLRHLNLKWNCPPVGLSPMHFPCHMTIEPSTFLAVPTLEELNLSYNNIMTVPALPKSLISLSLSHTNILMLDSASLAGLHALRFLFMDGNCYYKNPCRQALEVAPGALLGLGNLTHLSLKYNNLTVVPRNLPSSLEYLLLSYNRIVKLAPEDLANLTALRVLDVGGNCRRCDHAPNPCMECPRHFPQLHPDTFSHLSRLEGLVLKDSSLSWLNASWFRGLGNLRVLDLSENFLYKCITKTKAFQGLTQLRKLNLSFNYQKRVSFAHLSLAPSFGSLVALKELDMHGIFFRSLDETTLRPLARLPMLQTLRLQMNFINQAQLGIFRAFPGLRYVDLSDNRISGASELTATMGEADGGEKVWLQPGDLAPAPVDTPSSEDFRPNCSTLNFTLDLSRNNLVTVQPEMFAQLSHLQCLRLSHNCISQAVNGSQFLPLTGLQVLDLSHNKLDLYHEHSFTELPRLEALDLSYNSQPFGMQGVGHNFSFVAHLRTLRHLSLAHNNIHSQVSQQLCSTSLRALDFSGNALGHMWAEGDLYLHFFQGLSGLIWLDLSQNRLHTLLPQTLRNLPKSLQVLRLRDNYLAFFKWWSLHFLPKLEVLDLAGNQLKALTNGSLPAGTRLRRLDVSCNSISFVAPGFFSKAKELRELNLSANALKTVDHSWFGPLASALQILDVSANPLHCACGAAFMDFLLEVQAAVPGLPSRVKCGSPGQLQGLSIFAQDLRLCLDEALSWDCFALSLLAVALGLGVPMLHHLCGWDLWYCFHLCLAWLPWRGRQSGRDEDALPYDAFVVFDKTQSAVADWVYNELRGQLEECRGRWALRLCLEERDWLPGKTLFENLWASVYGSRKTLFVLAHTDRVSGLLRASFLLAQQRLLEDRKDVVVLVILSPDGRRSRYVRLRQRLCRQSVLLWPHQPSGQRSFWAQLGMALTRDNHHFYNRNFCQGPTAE
As to the kind of experiment: HEK293-Blue-hTLR-9 cells assay. Conditions: HEK293-Blue-hTLR9 cells, ODN2006 stimulation, 20 hrs, SEAP reporter; read-out: HEK/hTLR9 IC50. It is filed as cell-based. Details: host or cells: HEK293-Blue-hTLR-9 (HEK293). The method, then: The following tests were carried out in order to determine the activity of the compounds of formula (I) and (Ia) in HEK293-Blue-hTLR-7/8/9 cells assay.
HEK293-Blue-hTLR-9 cells assay:
A stable HEK293-Blue-hTLR-9 cell line was purchased from InvivoGen (Cat. #: hkb-htlr9, San Diego, Calif., USA). These cells were originally designed for studying the stimulation of human TLR9 by monitoring the activation of NE-KB. A SEAP (secreted embryonic alkaline phosphatase) reporter gene was placed under the control of the IFN-β minimal promoter fused to five NE-κB and AP-1-binding sites. The SEAP was induced by activating NE-κB and AP-1 via stimulating HEK-Blue hTLR9 cells with TLR9 ligands. Therefore the reporter expression was declined by TLR9 antagonist under the stimulation of a ligand, such as ODN2006 (Cat. #: tlrl-2006-1, Invivogen, San Diego, Calif., USA), for incubation of 20 hrs. The cell culture supernatant SEAP reporter activity was determined using QUANTI-Blue™ kit (Cat. #: rep-qb1, Invivogen, San Diego, Calif., USA) at a wavelength of 640 nm, a detection medium that turns purple or blue in the presence of alkaline phosphatase.
HEK293-Blue-hTLR9 cells were incubated at a density of 250,000˜450,000 cells/mL in a volume of 170 μL in a 96-well plate in Dulbecco's Modified Eagle's medium (DMEM) containing 4.5 g/L glucose, 50 U/mL penicillin, […], […], 2 mM L-glutamine, 10% (v/v) heat-inactivated fetal bovine serum with addition of 20 μL test compound in a serial dilution in the presence of final DMSO at 1% and 10 μL of 20 uM ODN2006 in above DMEM, perform incubation under 37° C. in a CO2 incubator for 20 hrs. Then 20 μL of the supernatant from each well was incubated with 180 μL Quanti-blue substrate solution at 37° C. for 2 h and the absorbance was read at 620˜655 nm using a spectrophotometer. The signaling pathway that TLR9 activation leads to downstream NE-κB activation has been widely accepted, and therefore similar reporter assay was modified for evaluating TLR9 antagonist.

A further data set addresses T2, CYP2D6 (Homo sapiens, UniProt P10635).
T2 construct: tissue BD-Gentest 452117; host or cells: human liver microsomes
As to the kind of experiment: CYP inhibition assay in human liver microsome. The class given is in vitro ADME. Particulars: human liver microsomes, probe dextromethorphan, dextromethorphan substrate, percentage inhibition <0: not or weak inhibitor, read-out: CYP 2D6 inhibition %@10 μM. The method, then:
The compounds would be desirable to have minimal DDI liabilities. Therefore, the effects of compounds of formula (I) or (Ia) on CYP2D6 are determined.
This is a high throughput screening assay used for assessment of reversible inhibition of CYP2D6 activity of test compounds in human liver microsome (HLM) in early discovery stage.
10 mM DMSO stock solutions of test compounds were diluted in DMSO to generate 2 mM intermediate stock solution. 250 nL of intermediate stock solution were transferred in duplicate into 3 separate 384 well microtitre plates (assay-ready plates). A mixture of HLM and each substrate was made up. 45 μL of HLM substrate mix was then transferred to each well of an assay ready plate and mixed. The negative (solvent) and positive control (standard inhibitor for CYP 2D6) were included in each assay ready plate. The assay ready plate was warmed to 37° C. in an incubator over 10 minutes. 5 μL pre-warmed NADPH regenerating system was added to each incubation well to start the reaction. Final incubation volume was 50 μL. The assay plate then was placed back in the 37° C. incubator. After 10 minutes incubation, incubates were quenched by addition of 50 μL 100% acetonitrile containing internal standards (20 ng/mL D3-Dextrorphan). The supernatants were collected for RapidFire/MS/MS analysis.
RapidFire online solid phase extraction/sample injection system (Agilent) coupled with API4000 triple quadrupole mass spectrometer (AB Sciex) were used for sample analysis. The mobile phase composed of acetonitrile and water supplemented with 0.1% formic acid. A C4 solid phase extraction cartridge is used for sample separation. MS detection is achieved in positive ion MRM mode.
Data analysis Peak areas for substrate, metabolite and internal standard are determined using the RapidFire integrator software (version 3.6.12009.12296). Peak area ratios (PAR) of metabolite and internal standard (stable-labelled metabolite) are then calculated. The measurement window for each experiment is then defined:
PAR (0% activity), average PAR for all incubations containing concentrated inhibitor; Par (100% activity), average PAR for all incubations containing no inhibitor (DMSO controls);
% Activity (test inhibitor)=
=[PAR(test inhibitor)-PAR(0% activity)]/[PAR(100% activity)-PAR(0% activity)];
% Inhibition (test inhibitor)=100-% Activity (test inhibitor).

T2 sequence (P10635 whole entry): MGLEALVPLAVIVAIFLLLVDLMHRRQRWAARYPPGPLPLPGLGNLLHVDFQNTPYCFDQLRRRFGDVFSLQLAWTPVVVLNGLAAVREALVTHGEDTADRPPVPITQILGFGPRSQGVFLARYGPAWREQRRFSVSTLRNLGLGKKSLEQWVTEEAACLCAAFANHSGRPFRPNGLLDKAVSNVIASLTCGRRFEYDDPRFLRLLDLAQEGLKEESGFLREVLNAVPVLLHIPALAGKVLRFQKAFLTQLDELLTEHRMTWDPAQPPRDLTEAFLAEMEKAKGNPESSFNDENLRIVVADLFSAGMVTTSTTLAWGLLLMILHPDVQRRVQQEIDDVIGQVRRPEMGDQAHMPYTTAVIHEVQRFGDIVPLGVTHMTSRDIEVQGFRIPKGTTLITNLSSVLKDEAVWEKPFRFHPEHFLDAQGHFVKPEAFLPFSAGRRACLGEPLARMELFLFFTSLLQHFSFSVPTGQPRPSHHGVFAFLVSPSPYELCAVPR

`Cc1cc(N2CC3(CN(C[C@H]4CN(c5ccc(C#N)c6ncccc56)C[C@@H](C)O4)C3)C2)cc(CO)n1` [Example 1, 5-[(2S,6R)-2-[[2-[2-(hydroxymethyl)-6-methyl-4-pyridyl]-2,6-diazaspiro[3.3]heptan-6-yl]methyl]-6-methyl-morpholin-4-yl]quinoline-8-carbonitrile]: the IC50 on hTLR9 worked out at 34 nM. At CYP2D6, the inhibition (as a rule, the change of the read-out against control, counted positive when it falls) at 10 min, 10 μM was 6%.

In the case of `Cc1cc(N2CC3(CN(C[C@H]4CN(c5ccc(C#N)c6ncccc56)C[C@@H](C)O4)C3)C2)cc(C(C)O)n1` (stereo partly drawn) [Example 44, 5-[(2S,6R)-2-[[2-[2-(1-hydroxyethyl)-6-methyl-4-pyridyl]-2,6-diazaspiro[3.3]heptan-6-yl]methyl]-6-methyl-morpholin-4-yl]quinoline-8-carbonitrile], the IC50 at hTLR9 was below 32 nM. Also, on CYP2D6, the inhibition at 10 min, 10 μM worked out at 5%.

With `Cc1cc(N2CCOC3(CN(C[C@H]4CN(c5ccc(C#N)c6ncccc56)C[C@@H](C)O4)C3)C2)cc(C)n1` [Example 14], on hTLR9, the IC50 was below 32 nM. The inhibition at 10 min, 10 μM on CYP2D6 was determined as 19%.

Take `Cc1cc(NC2CCN(C[C@H]3CN(c4ccc(C#N)c5ncccc45)C[C@@H](C)O3)CC2)cc(CO)n1` [Example 5]: the IC50 at hTLR9 is 32 nM. Further, the inhibition at 10 min, 10 μM at CYP2D6 is 7.5%.

Take `Cc1cc(NC2CCN(C[C@H]3CN(c4ccc(C#N)c5ncccc45)C[C@@H](C)O3)C2)cc(CO)n1` (stereo partly shown) [Example 6]: the IC50 at hTLR9 worked out at 41 nM. Besides, the inhibition at 10 min, 10 μM on CYP2D6 was 8%.

As to `Cc1cc(N2CC(NC[C@H]3CN(c4ccc(C#N)c5ncccc45)C[C@@H](C)O3)C2)cc(CO)n1` [Example 30], the IC50 on hTLR9 is 88 nM. In addition, the inhibition at 10 min, 10 μM on CYP2D6 is 8.5%.

Consider `CC(O)c1cc(N2CC3(CN(C[C@H]4CN(c5ccc(C#N)c6ncccc56)C[C@@H](C)O4)C3)C2)ccn1` (stereo partly drawn) [Example 46, 5-[(2S,6R)-2-[[2-[2-(1-hydroxyethyl)-4-pyridyl]-2,6-diazaspiro[3.3]heptan-6-yl]methyl]-6-methyl-morpholin-4-yl]quinoline-8-carbonitrile], for which, at hTLR9, the IC50 is below 32 nM. Moreover, the inhibition at 10 min, 10 μM on CYP2D6 is 17%.

Take `Cc1cc(NC2CN(C[C@H]3CN(c4ccc(C#N)c5ncccc45)C[C@@H](C)O3)C2)cc(C)n1` [Example 7]: at hTLR9, the IC50 was 39 nM. Further, the inhibition at 10 min, 10 μM on CYP2D6 is -21.5%.

For `Cc1cc(N2CCC[C@@H](NC[C@H]3CN(c4ccc(C#N)c5ncccc45)C[C@@H](C)O3)C2)cc(CO)n1` [Example 24], the IC50 on hTLR9 was below 32 nM. In addition, at CYP2D6, the inhibition at 10 min, 10 μM is -9.5%.

`C[C@@H]1CN(c2ccc(C#N)c3ncccc23)C[C@H](CN2CCN(c3cc(N)nc(CO)c3)CC2)O1` [Example 45, 5-[(2S,6R)-2-[[4-[2-amino-6-(hydroxymethyl)-4-pyridyl]piperazin-1-yl]methyl]-6-methyl-morpholin-4-yl]quinoline-8-carbonitrile]: at hTLR9, the IC50 is 91 nM. Besides, the inhibition at 10 min, 10 μM at CYP2D6 is -2.5%.

Take `Cc1cc(N2CCC[C@H](NC[C@H]3CN(c4ccc(C#N)c5ncccc45)C[C@@H](C)O3)C2)cc(CO)n1` [Example 25]: on hTLR9, the IC50 is below 32 nM. Also, at CYP2D6, the inhibition at 10 min, 10 μM came out at 8.5%.

In the case of `C[C@@H]1CN(c2ccc(C#N)c3ncccc23)C[C@H](CN2CC3(C2)CN(c2ccnc(CO)c2)CCO3)O1` [Example 51], the IC50 on hTLR9 is 35 nM. Also, the inhibition at 10 min, 10 μM on CYP2D6 was -15.5%.

For the compound `Cc1cc(N2CCC[C@H](N(C)C[C@H]3CN(c4ccc(C#N)c5ncccc45)C[C@@H](C)O3)C2)cc(CO)n1` [Example 38], at hTLR9, the IC50 came out at 39 nM. Also, the inhibition at 10 min, 10 μM at CYP2D6 turned out to be 0%.

Take `CNc1cc(N2CCN(C[C@H]3CN(c4ccc(C#N)c5ncccc45)C[C@@H](C)O3)CC2)cc(C)n1` [Example 42, 5-[(2R,6S)-2-methyl-6-[[4-[2-methyl-6-(methylamino)-4-pyridyl]piperazin-1-yl]methyl]morpholin-4-yl]quinoline-8-carbonitrile]: at hTLR9, the IC50 is below 32 nM. Also, the inhibition at 10 min, 10 μM on CYP2D6 was -0.5%.

With `Cc1cc(N2CCC3(CN(C[C@H]4CN(c5ccc(C#N)c6ncccc56)C[C@@H](C)O4)C3)C2)cc(C)n1` [Example 9], on hTLR9, the IC50 was 32 nM. At CYP2D6, the inhibition at 10 min, 10 μM is -5%.

In the case of `C[C@@H]1CN(c2ccc(C#N)c3ncccc23)C[C@H](CN[C@H]2CCCN(c3ccnc(N)c3)C2)O1` [Example 22], the IC50 on hTLR9 was 34 nM. At CYP2D6, the inhibition at 10 min, 10 μM stood at 2%.

As for `Cc1cc(N2CCC[C@@H](N(C)C[C@H]3CN(c4ccc(C#N)c5ncccc45)C[C@@H](C)O3)C2)cc(CO)n1` [Example 35], the IC50 on hTLR9 stood at 34 nM. For the same compound, at CYP2D6, the inhibition at 10 min, 10 μM was -4%.

With `Cc1cc(N2CCC23CN(C[C@H]2CN(c4ccc(C#N)c5ncccc45)C[C@@H](C)O2)C3)ccn1` [Example 15], on hTLR9, the IC50 came out at 71 nM. For the same compound, the inhibition at 10 min, 10 μM on CYP2D6 is 4%.

Turning to `Cc1cc(N2CCOC3(CN(C[C@H]4CN(c5ccc(C#N)c6ncccc56)C[C@@H](C)O4)C3)C2)ccn1` [Example 16], the IC50 at hTLR9 turned out to be 38 nM. Also, the inhibition at 10 min, 10 μM at CYP2D6 was found to be 5%.

For the compound `Cc1cc(N2C[C@H]3CN(C[C@H]4CN(c5ccc(C#N)c6ncccc56)C[C@@H](C)O4)C[C@H]3C2)cc(CO)n1` [Example 10], the IC50 on hTLR9 is below 32 nM. The inhibition at 10 min, 10 μM at CYP2D6 came out at 3.5%.
